31 compounds from patent US10214519B2, “Phosphatidylinositol 3-kinase inhibitors” (Gilead Sciences, Inc., priority 2016, dated 2019) can be followed below.

What is called IC50 is the concentration needed to halve the response being measured.

In this assay the target is PI3Kβ (Homo sapiens (Human), UniProt P42338). The experiment in a line: PI3K isoform TR-FRET enzymatic assay (PI3Kβ). Format: biochemical. Particulars: 2× Km ATP, 30 minutes at 25° C. An outline of the steps: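 Heterodimeric recombinant PI3Kβ was incubated with compound 30 minutes at 25° C. Product was detected by TR-FRET competition with 10 nM labeled PIP3 for 35 nM Eu-GRP-1 PH domain after EDTA stop. Data were normalized to 1 μM wortmannin and DMSO, and IC50 was taken from a four-parameter fit.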
On the technique in general: In TR-FRET formats the signal depends on donor and acceptor labels being close together.

Sequence of PI3Kβ (P42338 whole entry, the tested form may be a part, canonical isoform): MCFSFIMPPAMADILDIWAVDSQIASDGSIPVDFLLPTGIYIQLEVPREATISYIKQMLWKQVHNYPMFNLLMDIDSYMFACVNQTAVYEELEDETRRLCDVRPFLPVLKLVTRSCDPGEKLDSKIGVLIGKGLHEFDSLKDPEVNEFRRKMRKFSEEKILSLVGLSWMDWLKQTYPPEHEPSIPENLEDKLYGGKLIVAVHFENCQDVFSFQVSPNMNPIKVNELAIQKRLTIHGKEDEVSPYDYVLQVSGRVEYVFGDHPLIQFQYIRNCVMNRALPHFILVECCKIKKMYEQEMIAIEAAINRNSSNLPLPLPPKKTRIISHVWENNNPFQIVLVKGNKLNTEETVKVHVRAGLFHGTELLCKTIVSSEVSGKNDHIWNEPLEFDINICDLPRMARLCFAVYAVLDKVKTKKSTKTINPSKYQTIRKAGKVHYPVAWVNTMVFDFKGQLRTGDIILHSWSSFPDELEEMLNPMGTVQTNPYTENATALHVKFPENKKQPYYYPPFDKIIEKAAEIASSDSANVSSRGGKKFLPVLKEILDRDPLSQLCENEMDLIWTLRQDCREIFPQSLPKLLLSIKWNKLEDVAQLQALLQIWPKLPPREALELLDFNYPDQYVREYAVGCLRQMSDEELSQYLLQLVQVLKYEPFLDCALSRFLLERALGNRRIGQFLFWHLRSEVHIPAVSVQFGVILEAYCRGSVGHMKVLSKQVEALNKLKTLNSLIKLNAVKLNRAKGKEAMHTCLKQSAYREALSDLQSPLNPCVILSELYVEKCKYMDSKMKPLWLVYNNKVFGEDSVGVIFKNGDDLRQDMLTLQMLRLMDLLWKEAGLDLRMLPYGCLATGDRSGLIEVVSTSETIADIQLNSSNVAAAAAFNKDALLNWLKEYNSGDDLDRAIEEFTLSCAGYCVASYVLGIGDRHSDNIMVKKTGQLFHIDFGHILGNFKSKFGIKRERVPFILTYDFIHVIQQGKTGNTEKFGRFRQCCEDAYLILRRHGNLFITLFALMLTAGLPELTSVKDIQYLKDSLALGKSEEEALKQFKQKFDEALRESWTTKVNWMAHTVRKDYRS
Sequence of PI3Kβ (P27986 whole entry partner, the tested form may be a part, canonical isoform): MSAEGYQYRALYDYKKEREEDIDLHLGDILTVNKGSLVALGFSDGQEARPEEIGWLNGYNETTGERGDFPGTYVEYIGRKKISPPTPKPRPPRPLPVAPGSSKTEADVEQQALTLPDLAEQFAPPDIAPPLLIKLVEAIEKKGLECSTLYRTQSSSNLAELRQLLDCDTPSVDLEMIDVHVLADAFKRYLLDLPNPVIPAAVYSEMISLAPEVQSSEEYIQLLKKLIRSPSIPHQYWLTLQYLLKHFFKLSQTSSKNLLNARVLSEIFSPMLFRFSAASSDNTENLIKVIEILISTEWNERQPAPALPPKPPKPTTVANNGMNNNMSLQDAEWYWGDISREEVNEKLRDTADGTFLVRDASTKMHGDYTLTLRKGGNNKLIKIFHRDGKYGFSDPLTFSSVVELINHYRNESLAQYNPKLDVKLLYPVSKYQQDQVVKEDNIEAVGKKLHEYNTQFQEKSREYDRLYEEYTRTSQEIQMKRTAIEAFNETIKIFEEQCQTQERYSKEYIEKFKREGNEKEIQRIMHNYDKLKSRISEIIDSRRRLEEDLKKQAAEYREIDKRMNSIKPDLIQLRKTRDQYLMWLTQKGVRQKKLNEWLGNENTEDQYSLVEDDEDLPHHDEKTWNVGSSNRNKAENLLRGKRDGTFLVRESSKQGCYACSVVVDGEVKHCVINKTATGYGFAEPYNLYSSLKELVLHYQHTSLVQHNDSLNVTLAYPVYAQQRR

With `Cc1nc2c(-c3n[nH]c(=O)o3)cc(N3CCOCC3)cc2n1-c1ccnc2cc(F)ccc12` [Example 166, 5-(1-(7-fluoroquinolin-4-yl)-2-methyl-6-morpholino-1H-benzo[d]imidazol-4-yl)-1,3,4-oxadiazol-2(3H)-one], the IC50 was found to be 480 nM.

For the compound `Cc1nnc(-c2cc(N3CCOCC3)cc3c2nc(CC2CC2)n3-c2ccnc3c(Cl)cccc23)[nH]1` [Example 8, 4-(1-(8-chloroquinolin-4-yl)-2-(cyclopropylmethyl)-4-(5-methyl-4H-1,2,4-triazol-3-yl)-1H-benzo[d]imidazol-6-yl)morpholine], inhibition was half-maximal at 32 nM (IC50). On to `Cc1nnc(-c2cc(N3CCOCC3)cc3c2nc(C)n3-c2ccnc3c(Cl)cc(F)cc23)[nH]1` [Example 18, 4-(1-(8-chloro-6-fluoroquinolin-4-yl)-2-methyl-4-(5-methyl-4H-1,2,4-triazol-3-yl)-1H-benzo[d]imidazol-6-yl)morpholine], for which it took 63 nM to reach half-maximal inhibition (IC50). As for `Clc1cccc2c(-n3cnc4c(-c5c[nH]cn5)cc(N5CCOCC5)cc43)ccnc12` [Example 332, 4-(1-(8-chloroquinolin-4-yl)-4-(1H-imidazol-4-yl)-1H-benzo[d]imidazol-6-yl)morpholine], half-maximal inhibition (IC50) was put at 2 nM. This IC50 is about 32-fold lower than that of the compound before.

In turn, `CCCc1nc2c(-c3nnc[nH]3)cc(N3CCOCC3)cc2n1-c1ccnc2c(Cl)c(F)ccc12` [Example 34, 4-(1-(8-chloro-7-fluoroquinolin-4-yl)-2-propyl-4-(4H-1,2,4-triazol-3-yl)-1H-benzo[d]imidazol-6-yl)morpholine] returned an IC50 of 10 nM.

The compound `Fc1cccc2c(-n3c(CC4CC4)nc4c(-c5cnc(Cl)[nH]5)cc(N5CCOCC5)cc43)ccnc12` [Example 304, 4-[7-(2-chloro-1H-imidazol-5-yl)-2-(cyclopropylmethyl)-3-(8-fluoroquinolin-4-yl)benzimidazol-5-yl]morpholine] displayed an IC50 of 81 nM.

Take `Cc1nnc(-c2cc(N3CCOCC3)cc3c2nc(C)n3-c2ccnc3ccccc23)[nH]1` [Example 19, 4-(2-methyl-4-(5-methyl-4H-1,2,4-triazol-3-yl)-1-(quinolin-4-yl)-1H-benzo[d]imidazol-6-yl)morpholine]: the IC50 turned out to be 110 nM. Turning to `Cc1cnc2c(C#N)cccc2c1-n1c(C)nc2c(-c3nnc[nH]3)cc(N3CCOCC3)cc21` (atropisomer, axis not shown) [Compound 375, 3-methyl-4-(2-methyl-6-morpholino-4-(4H-1,2,4-triazol-3-yl)-1H-benzo[d]imidazol-1-yl)quinoline-8-carbonitrile], the IC50 came to 7100 nM. The compound `Fc1ccc(F)c2c(-n3c(C4CC4)nc4c(-c5cnc(Cl)[nH]5)cc(N5CCOCC5)cc43)ccnc12` (atropisomer, axis not shown) [Compound 342, 4-[7-(2-chloro-1H-imidazol-5-yl)-2-cyclopropyl-3-(5,8-difluoroquinolin-4-yl)benzimidazol-5-yl]morpholine] yielded an IC50 above 10000 nM. In turn, `Cc1cccc2nccc(-n3c(C)nc4c(-c5nnc[nH]5)cc(N5CCOCC5)cc43)c12` (atropisomer, axis not shown) [Compound 363, 4-[2-methyl-3-(5-methylquinolin-4-yl)-7-(4H-1,2,4-triazol-3-yl)benzimidazol-5-yl]morpholine] came in with an IC50 of 8000 nM. In other words, the single-digit micromolar range. Take `CC(C)(C)c1nc2c(-c3nnc[nH]3)cc(N3CCOCC3)cc2n1-c1ccnc2c(Cl)cccc12` [Example 20, 4-(2-(tert-butyl)-1-(8-chloroquinolin-4-yl)-4-(4H-1,2,4-triazol-3-yl)-1H-benzo[d]imidazol-6-yl)morpholine]: the midpoint of inhibition, the IC50, lay at 120 nM.

In turn, `CCCc1nc2c(-c3nnc[nH]3)cc(N3CCOCC3)cc2n1-c1ccnc2c(C)ccc(F)c12` [Example 37, 4-(1-(5-fluoro-8-methylquinolin-4-yl)-2-propyl-4-(4H-1,2,4-triazol-3-yl)-1H-benzo[d]imidazol-6-yl)morpholine] returned an IC50 of 11 nM. As to `Cc1nc2c(-c3nnc[nH]3)cc(N3CCOCC3)cc2n1-c1ccnc2c(Cl)cc(F)cc12` [Example 35, 4-(1-(8-chloro-6-fluoroquinolin-4-yl)-2-methyl-4-(4H-1,2,4-triazol-3-yl)-1H-benzo[d]imidazol-6-yl)morpholine], the IC50 amounted to 11 nM.

As for `Cc1nc2c(-c3ncco3)cc(N3CCOCC3)cc2n1-c1ccnc2c(F)cccc12` (atropisomer, axis not shown) [Example 341, 4-[3-(8-fluoroquinolin-4-yl)-2-methyl-7-(1,3-oxazol-2-yl)benzimidazol-5-yl]morpholine], the IC50 was 6 nM. `Clc1cccc2c(-n3c(CC4CC4)nc4c(-c5ncco5)cc(N5CCOCC5)cc43)ccnc12` [Example 220, 4-[3-(8-chloroquinolin-4-yl)-2-(cyclopropylmethyl)-7-(1,3-oxazol-2-yl)benzimidazol-5-yl]morpholine] yielded an IC50 of 7 nM. The value for `Cc1csc(-c2cc(N3CCOCC3)cc3c2nc(C2CC2)n3-c2ccnc3c(Cl)cccc23)n1` [Example 234, 4-[3-(8-chloroquinolin-4-yl)-2-cyclopropyl-7-(4-methyl-1,3-thiazol-2-yl)benzimidazol-5-yl]morpholine] was 100 nM; that for `CCc1nc2c(-c3nnc[nH]3)cc(N3CCOCC3)cc2n1-c1c(C)cnc2c(C#N)cccc12` [Example 155, 4-(2-ethyl-6-morpholino-4-(4H-1,2,4-triazol-3-yl)-1H-benzo[d]imidazol-1-yl)-3-methylquinoline-8-carbonitrile] was 20 nM. `CCc1nc2c(-c3ncco3)cc(N3CCOCC3)cc2n1-c1ccnc2c(Cl)c(F)ccc12` [Example 218, 4-[3-(8-chloro-7-fluoroquinolin-4-yl)-2-ethyl-7-(1,3-oxazol-2-yl)benzimidazol-5-yl]morpholine] returned an IC50 of 11 nM.

Take `Fc1ccc(Cl)c2nccc(-n3c(C4CC4)nc4c(-c5ncco5)cc(N5CCOCC5)cc43)c12` [Example 242, 4-[3-(8-chloro-5-fluoroquinolin-4-yl)-2-cyclopropyl-7-(1,3-oxazol-2-yl)benzimidazol-5-yl]morpholine]: the IC50 is 6 nM.

The compound `CCc1nc2c(-c3nnc[nH]3)cc(N3CCOCC3)cc2n1-c1ccnc2c(F)ccc(Cl)c12` [Example 5, 4-(1-(5-chloro-8-fluoroquinolin-4-yl)-2-ethyl-4-(4H-1,2,4-triazol-3-yl)-1H-benzo[d]imidazol-6-yl)morpholine] yielded an IC50 of 29 nM. Compared with the last compound, the IC50 is about 4.8-fold higher. On to `CCc1nc2c(-c3nnc(Cl)[nH]3)cc(N3CCOCC3)cc2n1-c1ccnc2c(Cl)c(F)ccc12` [Example 172, 4-(4-(5-chloro-4H-1,2,4-triazol-3-yl)-1-(8-chloro-7-fluoroquinolin-4-yl)-2-ethyl-1H-benzo[d]imidazol-6-yl)morpholine], for which the IC50 amounted to 100 nM. This IC50 lies about 3.4-fold higher than the previous one. `CC(C)c1nc2c(-c3nnc[nH]3)cc(N3CCOCC3)cc2n1-c1ccnc2c(Cl)cccc12` [Example 36, 4-(1-(8-chloroquinolin-4-yl)-2-isopropyl-4-(4H-1,2,4-triazol-3-yl)-1H-benzo[d]imidazol-6-yl)morpholine]: the IC50 was determined as 11 nM. This IC50 lies about 9.1-fold lower than the previous one. On to `CCc1nc2c(-c3cnc(Cl)[nH]3)cc(N3CCOCC3)cc2n1-c1ccnc2c(F)ccc(F)c12` (atropisomer, axis not shown) [Compound 347, 4-[7-(2-chloro-1H-imidazol-5-yl)-3-(5,8-difluoroquinolin-4-yl)-2-ethylbenzimidazol-5-yl]morpholine], for which the IC50 stood at 7 nM. Take `CCCc1nc2c(-c3ccn[nH]3)cc(N3CCOCC3)cc2n1-c1ccnc2c(F)ccc(F)c12` (atropisomer, axis not shown) [Compound 368, 4-(1-(5,8-difluoroquinolin-4-yl)-2-propyl-4-(1H-pyrazol-5-yl)-1H-benzo[d]imidazol-6-yl)morpholine]: the IC50 stood at 18 nM. Turning to `CCc1nc2c(-c3nnc(C)[nH]3)cc(N3CCOCC3)cc2n1-c1c(Cl)cnc2c(Cl)cccc12` (atropisomer, axis not shown) [Compound 349, 4-[3-(3,8-dichloroquinolin-4-yl)-2-ethyl-7-(5-methyl-4H-1,2,4-triazol-3-yl)benzimidazol-5-yl]morpholine], the IC50 amounted to 439 nM. Consider `CCCc1nc2c(-c3ncco3)cc(N3CCOCC3)cc2n1-c1ccnc2c(Cl)cc(F)cc12` [Example 222, 4-[3-(8-chloro-6-fluoroquinolin-4-yl)-7-(1,3-oxazol-2-yl)-2-propylbenzimidazol-5-yl]morpholine], for which the IC50 is 12 nM.

Consider `Clc1cccc2c(-n3c(-c4cn[nH]c4)nc4c(-c5nnc[nH]5)cc(N5CCOCC5)cc43)ccnc12` [Example 120, 4-[3-(8-chloroquinolin-4-yl)-2-(1H-pyrazol-4-yl)-7-(4H-1,2,4-triazol-3-yl)benzimidazol-5-yl]morpholine], for which the IC50 was 27 nM. Turning to `Cc1cnc2c(Cl)cccc2c1-n1c(C)nc2c(-c3nnc[nH]3)cc(N3CCOCC3)cc21` [Example 68, 4-[3-(8-chloro-3-methylquinolin-4-yl)-2-methyl-7-(4H-1,2,4-triazol-3-yl)benzimidazol-5-yl]morpholine], it took 8 nM to reach half-maximal inhibition (IC50). The compound `Cc1nc2c(-c3nnc[nH]3)cc(N3CCOCC3)cc2n1-c1c(Cl)cnc2ccccc12` [Example 128, 4-[3-(3-chloroquinolin-4-yl)-2-methyl-7-(4H-1,2,4-triazol-3-yl)benzimidazol-5-yl]morpholine] yielded an IC50 of 51 nM. With `Cc1nc2c(-c3nnc[nH]3)cc(N3CCOCC3)cc2n1-c1ccnc2c(Cl)cccc12` (atropisomer, axis not shown) [Compound 361, 4-[3-(8-chloroquinolin-4-yl)-2-methyl-7-(4H-1,2,4-triazol-3-yl)benzimidazol-5-yl]morpholine], the IC50 was 2 nM. This IC50 is about 26-fold lower than that of the compound before. In turn, `Clc1ncc(-c2cc(N3CCOCC3)cc3c2nc(C2CC2)n3-c2ccnc3c(Cl)cccc23)[nH]1` [Example 290, 4-[7-(2-chloro-1H-imidazol-5-yl)-3-(8-chloroquinolin-4-yl)-2-cyclopropylbenzimidazol-5-yl]morpholine] returned an IC50 of 68 nM.
